Where two headings read alike, the source gives them in different places.
Key:
multiple cell types = experiment: CellTox Green Cytotoxicity Assay, average of 6 cell types; conditions: average ± SEM, n = 6 cell lines
SARS-CoV-2 WA1 = experiment: microbe, parasite or virus in culture; type: cell-based; conditions: Severe acute respiratory syndrome coronavirus 2, Caco-2, 96 h
[1] = test system: SARS-CoV-2 B.1.427 (Epsilon); experiment: microbe, parasite or virus in culture; type: cell-based
A549 cells = experiment: Phospholipidosis imaging (NBD-PE fluorescence); conditions: 24 h, sangivamycin up to 5 μM, melperone 10 μM, amiodarone positive control
KCNH2 (hERG) = target: T1, KCNH2 (hERG) (Homo sapiens, UniProt Q12809); experiment: Potassium channel inhibition testing (QPatch HTX electrophysiology); type: cell-based
T1 construct: expressed in transfected cells; host or cells: HEK293T
T1 sequence (Q12809 whole entry): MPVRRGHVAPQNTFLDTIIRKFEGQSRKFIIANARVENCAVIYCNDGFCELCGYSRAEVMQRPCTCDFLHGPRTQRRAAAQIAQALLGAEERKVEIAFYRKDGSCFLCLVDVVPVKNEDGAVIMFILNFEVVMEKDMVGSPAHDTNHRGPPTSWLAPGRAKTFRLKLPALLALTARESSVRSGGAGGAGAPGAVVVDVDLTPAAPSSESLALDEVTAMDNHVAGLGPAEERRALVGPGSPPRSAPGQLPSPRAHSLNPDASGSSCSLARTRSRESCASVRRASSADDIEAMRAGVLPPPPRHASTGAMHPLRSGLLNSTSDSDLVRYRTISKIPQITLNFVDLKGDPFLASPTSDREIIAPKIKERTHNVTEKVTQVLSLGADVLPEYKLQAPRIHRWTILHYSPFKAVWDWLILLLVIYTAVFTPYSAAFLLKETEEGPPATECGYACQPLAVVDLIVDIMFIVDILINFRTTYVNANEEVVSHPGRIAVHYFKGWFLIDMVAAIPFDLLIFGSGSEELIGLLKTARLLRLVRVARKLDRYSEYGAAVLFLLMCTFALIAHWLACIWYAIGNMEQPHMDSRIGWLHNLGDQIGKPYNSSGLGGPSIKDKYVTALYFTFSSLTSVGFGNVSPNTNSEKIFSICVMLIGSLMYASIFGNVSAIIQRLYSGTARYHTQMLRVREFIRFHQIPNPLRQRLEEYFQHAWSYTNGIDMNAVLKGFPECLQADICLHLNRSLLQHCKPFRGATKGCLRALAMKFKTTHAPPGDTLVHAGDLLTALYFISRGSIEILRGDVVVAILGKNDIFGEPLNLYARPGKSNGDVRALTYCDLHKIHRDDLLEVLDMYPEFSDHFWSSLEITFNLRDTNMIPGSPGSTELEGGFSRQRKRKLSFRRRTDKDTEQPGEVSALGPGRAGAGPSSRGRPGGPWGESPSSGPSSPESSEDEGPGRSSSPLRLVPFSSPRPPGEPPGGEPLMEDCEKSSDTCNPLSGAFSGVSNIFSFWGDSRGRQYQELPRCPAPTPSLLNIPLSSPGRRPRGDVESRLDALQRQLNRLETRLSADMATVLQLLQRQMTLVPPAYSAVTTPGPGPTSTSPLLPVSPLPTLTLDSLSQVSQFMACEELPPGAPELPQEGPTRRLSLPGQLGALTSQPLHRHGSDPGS
Description: The KCNH2 (hERG) functions as the α subunit of a cardiac potassium channel. Its inhibition by drugs has been implicated in fatal ventricular tachyarrhythmia ([31]). As a predictor of cardiotoxicity and genotoxicity, we therefore evaluated KCNH2 (hERG) inhibition and genotoxicity in the AMES mutagenicity assay.
Ruling out inhibition of KCNH2 (hERG) by a novel compound is a mandatory step in establishing drug safety. The effect of sangivamycin on KCNH2-derived cardiac potassium channels was assessed using HEK293T cells and the QPatch HTX electrophysiology platform (Evotech), following the manufacturer’s instructions. Sangivamycin was tested at 6 concentrations (cumulative concentration response, high test concentration of 10 μM). The percentage change in potassium channel tail current was used to calculate channel inhibition.

[2] = CellTiter-Glo cell viability assay; type: cell-based; conditions: human, A549 cells; A549, 72 h
[3] = Plasma protein binding assessment (equilibrium dialysis); type: in vitro ADME; conditions: 37°C
Method: The plasma protein binding assay was performed by Cyprotex to assess sangivamycin plasma protein binding. Equilibrium dialysis was used to determine the extent of binding of a compound to plasma proteins. A semipermeable membrane separated a protein-containing compartment (PC) from a protein-free compartment (PF). The system was set to equilibrate at 37°C. The test compound present in each compartment was then quantified by LC-MS/MS. The extent of binding is reported as a fraction unbound (fu) value, which is calculated as fu = 1 – ([PC – PF]/PC).

CYP2C9 = target: T2, CYP2C9 (Homo sapiens, UniProt P11712); experiment: CYP inhibition testing, human liver microsomes; type: in vitro ADME
T2 construct: along with human liver microsomes (0.5 mg/mL) and cofactors; tissue Cyprotex (performed the assay); host or cells: human liver microsomes
T2 sequence (P11712 whole entry): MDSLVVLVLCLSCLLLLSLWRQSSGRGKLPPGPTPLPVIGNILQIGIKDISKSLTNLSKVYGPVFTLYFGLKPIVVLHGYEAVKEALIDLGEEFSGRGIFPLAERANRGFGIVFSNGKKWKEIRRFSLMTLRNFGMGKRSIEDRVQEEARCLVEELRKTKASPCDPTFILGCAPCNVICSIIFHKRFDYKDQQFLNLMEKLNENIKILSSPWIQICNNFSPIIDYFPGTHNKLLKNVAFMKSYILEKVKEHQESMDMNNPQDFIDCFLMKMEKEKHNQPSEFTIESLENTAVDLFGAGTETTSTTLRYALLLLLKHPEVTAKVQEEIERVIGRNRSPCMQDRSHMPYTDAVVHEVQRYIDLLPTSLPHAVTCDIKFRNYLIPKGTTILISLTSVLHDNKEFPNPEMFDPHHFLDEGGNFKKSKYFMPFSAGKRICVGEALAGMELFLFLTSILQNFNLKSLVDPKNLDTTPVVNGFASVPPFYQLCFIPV
Method: (§1) Sangivamycin was incubated by Cyprotex with a cocktail of model CYP substrates for CYP1A2, CYP2B6, CYP2C8, CYP2C9, CYP2C19, CYP2D6, CYP3A4, and CYP3A4, along with human liver microsomes (0.5 mg/mL) and cofactors (2.5 mM NADPH and 3.3 mM MgCl2), in 0.1 M phosphate buffer (pH 7.4) for 20 minutes at 37°C. Known CYP inhibitors were used in lieu of sangivamycin as positive controls: furafylin (1A2), thioTEPA (2B6), montelukast (2C8), sulfaphenazole (2C9), nootkatone (2C19), quinidine (2D6), and ketoconazole (3A4). Formation of substrate breakdown metabolites was measured by LC-MS/MS and compared with control incubation (incubation of substrates with microsomes and cofactors but in the absence of sangivamycin or in the presence of known inhibitors). CYP inhibition was measured as a decrease in the formation of expected metabolites in the presence of sangivamycin or control inhibitor (defined as a percentage of control).

CYP2D6 = target: T3, CYP2D6 (Homo sapiens, UniProt P10635); experiment: CYP inhibition testing, human liver microsomes; type: in vitro ADME
T3 construct: along with human liver microsomes (0.5 mg/mL) and cofactors; tissue Cyprotex (performed the assay); host or cells: human liver microsomes
T3 sequence (P10635 whole entry): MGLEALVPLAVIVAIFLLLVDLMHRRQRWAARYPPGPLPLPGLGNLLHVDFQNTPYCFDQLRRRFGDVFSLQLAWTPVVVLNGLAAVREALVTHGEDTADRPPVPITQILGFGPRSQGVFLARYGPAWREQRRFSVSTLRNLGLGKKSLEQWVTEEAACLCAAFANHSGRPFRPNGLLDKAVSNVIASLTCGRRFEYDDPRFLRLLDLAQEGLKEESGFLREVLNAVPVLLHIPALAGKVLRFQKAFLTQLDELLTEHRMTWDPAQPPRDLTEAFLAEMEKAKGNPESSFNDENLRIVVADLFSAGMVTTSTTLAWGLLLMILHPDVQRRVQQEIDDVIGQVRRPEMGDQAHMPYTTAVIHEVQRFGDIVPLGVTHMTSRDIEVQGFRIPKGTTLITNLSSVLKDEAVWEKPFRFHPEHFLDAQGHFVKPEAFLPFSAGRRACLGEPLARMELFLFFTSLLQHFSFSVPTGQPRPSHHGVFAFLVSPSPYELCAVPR
Method: as §1

CYP2C19 = target: T4, CYP2C19 (Homo sapiens, UniProt P33261); experiment: CYP inhibition testing, human liver microsomes; type: in vitro ADME
T4 construct: along with human liver microsomes (0.5 mg/mL) and cofactors; tissue Cyprotex (performed the assay); host or cells: human liver microsomes
T4 sequence (P33261 whole entry): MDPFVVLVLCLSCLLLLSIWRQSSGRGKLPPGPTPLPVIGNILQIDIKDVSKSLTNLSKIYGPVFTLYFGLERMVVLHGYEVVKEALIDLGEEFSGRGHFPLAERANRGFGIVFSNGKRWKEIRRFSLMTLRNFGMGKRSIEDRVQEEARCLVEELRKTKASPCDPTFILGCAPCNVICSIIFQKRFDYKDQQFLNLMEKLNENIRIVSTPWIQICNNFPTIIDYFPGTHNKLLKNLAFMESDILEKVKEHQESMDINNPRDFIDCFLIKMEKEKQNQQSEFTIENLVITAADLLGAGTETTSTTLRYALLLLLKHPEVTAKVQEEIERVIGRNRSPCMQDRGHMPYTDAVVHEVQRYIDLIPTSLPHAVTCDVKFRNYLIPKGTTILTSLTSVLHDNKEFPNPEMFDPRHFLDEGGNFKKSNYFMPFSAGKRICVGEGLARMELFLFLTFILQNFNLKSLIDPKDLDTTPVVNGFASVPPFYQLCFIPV
Method: as §1

CYP2B6 = target: T5, CYP2B6 (Homo sapiens, UniProt P20813); experiment: CYP inhibition testing, human liver microsomes; type: in vitro ADME
T5 construct: along with human liver microsomes (0.5 mg/mL) and cofactors; tissue Cyprotex (performed the assay); host or cells: human liver microsomes
T5 sequence (P20813 whole entry): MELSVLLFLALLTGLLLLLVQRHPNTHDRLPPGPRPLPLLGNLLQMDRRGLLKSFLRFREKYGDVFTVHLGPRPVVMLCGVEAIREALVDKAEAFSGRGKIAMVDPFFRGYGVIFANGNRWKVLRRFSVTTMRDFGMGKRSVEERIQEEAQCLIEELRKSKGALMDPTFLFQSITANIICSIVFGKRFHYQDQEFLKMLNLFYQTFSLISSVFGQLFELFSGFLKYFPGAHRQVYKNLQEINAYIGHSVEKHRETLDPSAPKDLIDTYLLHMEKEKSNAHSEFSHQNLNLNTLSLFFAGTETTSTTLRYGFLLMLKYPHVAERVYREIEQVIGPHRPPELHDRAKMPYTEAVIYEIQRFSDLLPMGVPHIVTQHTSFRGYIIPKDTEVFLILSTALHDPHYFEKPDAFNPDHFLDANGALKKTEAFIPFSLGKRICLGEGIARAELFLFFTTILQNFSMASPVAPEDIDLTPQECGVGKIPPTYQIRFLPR
Method: as §1

CYP3A4 = target: T6, CYP3A4 (Homo sapiens, UniProt P08684); experiment: CYP inhibition testing, human liver microsomes; type: in vitro ADME
T6 construct: along with human liver microsomes (0.5 mg/mL) and cofactors; tissue Cyprotex (performed the assay); host or cells: human liver microsomes
T6 sequence (P08684 whole entry): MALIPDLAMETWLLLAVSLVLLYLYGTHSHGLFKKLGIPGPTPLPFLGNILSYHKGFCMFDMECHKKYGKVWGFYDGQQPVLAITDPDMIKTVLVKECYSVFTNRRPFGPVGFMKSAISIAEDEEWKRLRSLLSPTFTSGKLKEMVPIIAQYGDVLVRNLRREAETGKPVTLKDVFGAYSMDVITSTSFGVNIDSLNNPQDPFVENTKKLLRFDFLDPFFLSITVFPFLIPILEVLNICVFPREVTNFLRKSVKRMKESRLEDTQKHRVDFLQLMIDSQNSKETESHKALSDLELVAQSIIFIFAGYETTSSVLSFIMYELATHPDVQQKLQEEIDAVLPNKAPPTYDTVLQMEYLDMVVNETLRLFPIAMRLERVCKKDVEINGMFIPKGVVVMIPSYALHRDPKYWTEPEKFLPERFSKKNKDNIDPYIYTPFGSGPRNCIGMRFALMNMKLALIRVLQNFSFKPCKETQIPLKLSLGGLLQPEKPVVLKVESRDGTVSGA
Method: as §1

CYP1A2 = target: T7, CYP1A2 (Homo sapiens, UniProt P05177); experiment: CYP inhibition testing, human liver microsomes; type: in vitro ADME
T7 construct: along with human liver microsomes (0.5 mg/mL) and cofactors; tissue Cyprotex (performed the assay); host or cells: human liver microsomes
T7 sequence (P05177 whole entry): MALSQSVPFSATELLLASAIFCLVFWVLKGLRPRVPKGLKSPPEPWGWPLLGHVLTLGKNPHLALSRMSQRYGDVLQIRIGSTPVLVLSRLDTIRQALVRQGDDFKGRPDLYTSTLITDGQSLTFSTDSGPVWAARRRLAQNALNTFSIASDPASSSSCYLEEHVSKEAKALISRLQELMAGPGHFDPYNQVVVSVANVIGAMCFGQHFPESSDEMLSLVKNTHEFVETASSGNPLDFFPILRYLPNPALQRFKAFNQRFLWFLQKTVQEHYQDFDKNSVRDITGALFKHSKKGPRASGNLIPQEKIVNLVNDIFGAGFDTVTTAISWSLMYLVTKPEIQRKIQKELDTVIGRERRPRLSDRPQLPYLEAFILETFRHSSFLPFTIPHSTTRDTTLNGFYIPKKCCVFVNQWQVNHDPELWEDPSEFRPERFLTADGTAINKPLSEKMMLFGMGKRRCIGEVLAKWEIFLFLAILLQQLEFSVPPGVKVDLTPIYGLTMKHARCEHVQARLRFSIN
Method: as §1

CYP2C8 = target: T8, CYP2C8 (Homo sapiens, UniProt P10632); experiment: CYP inhibition testing, human liver microsomes; type: in vitro ADME
T8 construct: along with human liver microsomes (0.5 mg/mL) and cofactors; tissue Cyprotex (performed the assay); host or cells: human liver microsomes
T8 sequence (P10632 whole entry): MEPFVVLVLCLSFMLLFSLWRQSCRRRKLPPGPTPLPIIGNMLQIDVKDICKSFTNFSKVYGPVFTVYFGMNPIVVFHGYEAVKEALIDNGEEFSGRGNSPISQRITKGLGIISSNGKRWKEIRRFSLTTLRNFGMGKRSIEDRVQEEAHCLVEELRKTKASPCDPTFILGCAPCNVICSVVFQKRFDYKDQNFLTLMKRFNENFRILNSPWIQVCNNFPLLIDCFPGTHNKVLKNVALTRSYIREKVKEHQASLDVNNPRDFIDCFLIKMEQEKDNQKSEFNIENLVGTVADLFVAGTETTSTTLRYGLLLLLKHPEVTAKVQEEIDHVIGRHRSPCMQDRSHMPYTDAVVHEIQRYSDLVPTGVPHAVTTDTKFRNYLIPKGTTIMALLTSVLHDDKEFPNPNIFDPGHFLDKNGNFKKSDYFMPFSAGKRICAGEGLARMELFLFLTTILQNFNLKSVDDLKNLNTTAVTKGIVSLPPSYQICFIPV
Method: as §1

[4] = test system: Ebola virus RNA-directed RNA polymerase (RdRp) activity; conditions: in vitro; cited from earlier work
[5] = Metabolic stability testing, liver microsomes; type: in vitro ADME; conditions: pH 7.4, 0.5 mg/mL microsomes, NADPH
Method: To evaluate metabolic stability, sangivamycin was incubated by Cyprotex in duplicate with active and heat-inactivated human and CD-1 laboratory mouse liver microsomes (0.5 mg/mL) and cofactors (2.5 mM NADPH and 3.3 mM MgCl2) in 0.1 M phosphate buffer (pH 7.4) at 37°C. Aliquots were removed at 0, 15, 30, 60, 90, and 120 minutes, and the amount of drug remaining at each time point was determined by LC-MS/MS.

[6] = Severe acute respiratory syndrome coronavirus 2, Vero C1008, 24 h

NC(=O)c1cn([C@@H]2O[C@H](CO)[C@@H](O)[C@H]2O)c2ncnc(N)c12 [Sangivamycin, sangivamycin]
Ratio CellTox Green/CellTiter-Glo, Average (multiple cell types): >12.2 ± 3.78 | IC50 (SARS-CoV-2 WA1): 14 ± 2 nM | IC90 (SARS-CoV-2 WA1): 63 ± 17 nM | SI (selectivity index, CC50/IC50) ([1]; B.1.427 (Epsilon), Vero E6 cells): >32.3 | IC50 [1, 6]: 18.6 nM | IC90 [1, 6]: 212 nM | NBD-PE fluorescence (phospholipidosis) (A549 cells): no significant NBD-PE fluorescence above the DMSO control baseline | IC50 (KCNH2 (hERG)): > 10000 nM | effect on the KCNH2 (hERG) (KCNH2 (hERG); 10 μM): had no effect | CC50 at 72 h [2]: 173 nM | fraction unbound ([3]; human): 0.83 | fraction unbound ([3]; mouse): 0.879 | IC50 (CYP2C9): > 100000 nM | IC50 (CYP2D6): > 100000 nM | IC50 (CYP2C19): > 100000 nM | IC50 (CYP2B6): > 100000 nM | IC50 (CYP3A4): > 100000 nM | IC50 (CYP1A2): > 100000 nM | IC50 (CYP2C8): > 100000 nM | effect of remdesivir and sangivamycin combined [4]: additive effect | remaining at 2 h, 5 μM ([5]; CD-1, mouse, read-out: Mouse liver microsome stability (% remaining at 120 min)): 100% | remaining at 2 h, 5 μM ([5]; human, read-out: Human liver microsome stability (% remaining at 120 min)): 100%

Source: article PMC8765048 (JCI Insight, 2022)
